Assays:
[1] = test system: Ppargc1a, Thra and Thrb expression in bleomycin induced mouse lungs; assay: quantitative RT-PCR of relative gene expression in lungs, bleomycin model of lung fibrosis; type: in vivo, mice (C57/BL6); conditions: GC-1 30 μg/kg intraperitoneally every other day, days 10-18 after bleomycin; lungs at day 21; FIGS. 3A-3C
Procedure: (§1) C57B1/6, 9-12 weeks-old, female mice were purchased from Taconic Lab. Mice were anesthetized by placing them in a chamber having paper towels soaked with 40% isoflurane solution. 1.5 U/kg of bleomycin (Hospira, Ill.) or equivalent volume (50 μl) of 0.9% normal saline was administered intratracheally. To test therapeutic efficacy in bleomycin-induced established fibrosis intraperitoneal thyroid hormone receptor beta agonist (GC-1, 30 μg/kg) was administered at days 10, 12, 14, 16 and 18 following bleomycin-administration and mice were sacrificed at day 21. The lungs were harvested for fibrotic assays
qRT-PCR assay: Gene expression was determined by TaqMan® (Life Technologies, Thermo Scientific Inc. Rockford Ill., USA) according to manufacturer's instruction. β-glucuronidase (Gusb) was employed as an internal standard control and the specific primers and probes were all obtained from Life Technologies (Thermo Scientific Inc. Rockford Ill., USA). […]
9-12 weeks-old, C57/BL6 female mice were treated every other day intraperitoneally with thyroid hormone receptor beta agonist GC-1 (30 μg/kg) or equivalent volume of empty vehicle (200 μl of normal saline 0.9%) at days 10-18 following intratracheal challenge with bleomycin (1.5 U/kg) or normal saline 0.9%. […] FIGS. 3A-3C illustrate quantitative RT-PCR analysis of Ppargc1a, Thra and Thrb relative expression in the bleomycin model of lung fibrosis. […]

[2] = test system: bleomycin induced lung fibrosis; assay: bleomycin-induced established lung fibrosis in mice: fibrosis and Masson's Trichrome histology; type: in vivo, mice (C57/BL6); conditions: for collagen deposition in the interstitium, peribronchiolar, or perivascular space (Masson's Trichrome staining): days 10-18 after bleomycin, day 21 lung sections; for established fibrosis in bleomycin induced lung fibrosis: days 10-18 after intratracheal bleomycin 1.5 U/kg, sacrifice day 21
Procedure: as §1
Hydroxyproline: Lung hydroxyproline was analyzed with hydroxyproline colorimetric assay kit from Biovision (Milpitas, Calif.) following manufacturer's instruction.
Histology: Tissue sections (4 μm) were stained with Masson Trichrome (collagen/connective tissue), two slices per animal, and two animals per group.
FIG. 1 illustrates an experiment where mice with bleomycin-induced fibrosis were treated with GC-1 intraperitoneally. On Day 0, bleomycin was delivered intratracheally to the mice (1.5 U/kg). On days 10-18, the mice were administered 30 μg/kg of GC-1 (200 μl) or equivalent volume of vehicle (normal saline 0.9%).
9-12 weeks-old, C57/BL6 female mice were treated every other day intraperitoneally with thyroid hormone agonist GC-1 (30 μg/kg) or equivalent volume of empty vehicle (200 μl of normal saline 0.9%) at days 10-18, following intratracheal challenge with bleomycin (1.5 U/kg) or normal saline 0.9%. Mice were sacrificed at day 21. […] Data are expressed as mean hydroxyproline content per lung set (μg/gr lung)+SEM, n=8 mice/group, *p<0.05. FIGS. 2A-2D illustrate quantitative RT-PCR analysis of Col1a1, Col3a1, and FSP1 relative expression in the bleomycin model of lung fibrosis. Bars (means±SEM) are shown for the relative changes (fold) by setting the indicated control level to 1.0, *p<0.05. […]
9-12 weeks-old, C57/BL6 female mice were treated every other day orally by gavage with thyroid hormone receptor agonist GC-1 (5 mg/kg) or equivalent volume of empty vehicle (200 μl of normal saline 0.9%) at days 10-18 following intratracheal challenge with bleomycin (1.5 U/kg) or normal saline 0.9%. […] FIG. 5A: Hydroxyproline level in mice was assessed. Data are expressed as mean hydroxyproline content per lung set (μg/gr lung)+SEM, n=8 mice/group, *p<0.05. FIGS. 5B-5F illustrate quantitative RT-PCR analysis of Col1a1 (collagen, type I, alpha 1), Col3a1 (collagen, type III, alpha 1), FSP1 (fibroblast-specific protein 1), Acta (alpha-actin-2), and Ppargc1a (peroxisome proliferator-activated receptor gamma coactivator 1-alpha) relative expression in the bleomycin model of lung fibrosis. […]

In the case of Cc1cc(OCC(=O)O)cc(C)c1Cc1ccc(O)c(C(C)C)c1 [GC-1, 2-(4-(4-hydroxy-3-isopropylbenzyl)-3,5-dimethylphenoxy)acetic acid], the “Ppargc1a relative expression (qRT-PCR)” value [1] is reported as “regulates expression”, the “collagen deposition in the interstitium, peribronchiolar, or perivascular space (Masson's Trichrome staining)” value ([2]; GC-1 30 μg/kg intraperitoneally every other day, FIG. 2E) is reported as “significant decrease in collagen deposition” and the “established fibrosis in bleomycin induced lung fibrosis” value ([2]; GC-1 30 μg/kg intraperitoneally every other day, FIGS. 2A-2E) is reported as “blunt established fibrosis”. The “collagen deposition in the interstitium, peribronchiolar, or perivascular space (Masson's Trichrome staining)” value ([2]; GC-1 5 mg/kg orally by gavage every other day) was “significant decrease in collagen deposition” and the “established fibrosis in bleomycin induced lung fibrosis” value ([2]; GC-1 5 mg/kg orally by gavage every other day, FIGS. 5A-5G) was “blunt established fibrosis”.

Reference: patent US11660281B2, “Compositions and methods of treating or preventing fibrotic lung diseases” (YALE UNIVERSITY, priority 2017, dated 2023)
